Tested on: adalimumab producing cell line 1
Experiment: Lys-C peptide mapping for MGO modification of adalimumab, cell line 1
Format: cell-based
Conditions: Example 3
From the text: Typical trypsin digestion for peptide mapping cleaves a denatured, reduced and alkylated protein at the carboxyl side of the two basic amino acids, lysine and arginine. Methylglyoxal (MGO) is a small molecule metabolite derived as a glycolysis byproduct which can modify arginine residues. A modification of an arginine prevents trypsin from cutting this site and results in a mis-cleavage. The challenge of quantifying the amount of MGO modified peptide is that, it is not compared to an equivalent non-modified peptide but rather to two parental cleaved peptides. The two parental cleaved peptides likely have different ionization potential as compared to that of the modified peptide. In order to determine a truly accurate direct measurement of an MGO-modified peptide, it is compared to its non-modified counterpart and expressed as a percentage. Using endoproteinase lysine-C as an alternative enzyme, cleavages only occur at lysine residues. The result is a direct comparison of the same peptide with and without an MGO modification, which provides a high degree of accuracy in quantifying even trace levels of the modified species.
Procedure: Samples were dilated to a nominal concentration of 4 mg/mL. 8 M guanidine-HCl was added to the sample in a 3:1 ratio resulting in a 1 mg/mL concentration in 6M guanidine-HCl. […] Samples were analyzed by LC/MS peptide mapping. […] Eluting peaks were monitored using a Thermo Scientific LTQ-Orbitrap Mass Spectrometer. Specific mass traces were extracted for both modified and non-modified peptides in order to accurately quantify the total amount of MGO modification at each site. Mass spectra were also analyzed for the specific region of the chromatogram to confirm the peptide identity.
The cells were grown to maximum viable cell densities (VCD) in the range of 10-14×10^6 cells/ml for the different conditions tested. […] Samples were subsequently analyzed using Poros A for titer and WCX-10 post protein A purification. Based on the WCX-10 chromatograms, the percentages of total peak(s) area corresponding to the acidic species were quantified. […]

For `O=CC[C@@H](O)[C@H](O)[C@H](O)CO` [Test 2DDG, 2-Deoxy-D-Glucose], the MGO modification (2DDG 0.25 g/l alone, day 11 harvest, control 32.01%) was 18.03%, the MGO modification (2DDG and temperature shift combined with arginine supplementation and/or lower pH) was “substantial reduction” and the MGO protein modification (2DDG, temperature shift, lower pH and arginine supplementation all combined, day 11 harvest, control 32.01%) was 0.02%.

Source: US20160115225A1, “Methods of Reducing Methylglyoxal (MGO) Modification of Recombinant Proteins in Cell Culture” (AbbVie Inc., priority 2014, published 2016)
